In patent US8853418B2, “Cyclopentylpyrazoles as N-type calcium channel blockers” (Janssen Pharmaceutica NV, priority 2012, dated 2014):
Read-outs that look alike come from different tables or passages of the source.

Experiments:
[1] = molecular target: N-type calcium channel (Homo sapiens, UniProt Q00975); assay: Automated Electrophysiology Assay (QPatch-HT whole-cell patch clamp; low- and high-frequency stimulation); format: cell-based
[2] = molecular target: N-type calcium channel (α1B (Cav2.2), β3 and α2δ subunits) (Homo sapiens, UniProt Q00975); assay: Functional Assay: Antagonism of N-Type Calcium Channel (FDSS calcium mobilization, KCl depolarization); format: cell-based; settings: for IC50: HEK cell line, 50 mM KCl depolarization, six-point concentration-response, read-out: FDSS IC50
Chain of N-type calcium channel (α1B (Cav2.2), β3 and α2δ subunits) (Q00975 whole entry): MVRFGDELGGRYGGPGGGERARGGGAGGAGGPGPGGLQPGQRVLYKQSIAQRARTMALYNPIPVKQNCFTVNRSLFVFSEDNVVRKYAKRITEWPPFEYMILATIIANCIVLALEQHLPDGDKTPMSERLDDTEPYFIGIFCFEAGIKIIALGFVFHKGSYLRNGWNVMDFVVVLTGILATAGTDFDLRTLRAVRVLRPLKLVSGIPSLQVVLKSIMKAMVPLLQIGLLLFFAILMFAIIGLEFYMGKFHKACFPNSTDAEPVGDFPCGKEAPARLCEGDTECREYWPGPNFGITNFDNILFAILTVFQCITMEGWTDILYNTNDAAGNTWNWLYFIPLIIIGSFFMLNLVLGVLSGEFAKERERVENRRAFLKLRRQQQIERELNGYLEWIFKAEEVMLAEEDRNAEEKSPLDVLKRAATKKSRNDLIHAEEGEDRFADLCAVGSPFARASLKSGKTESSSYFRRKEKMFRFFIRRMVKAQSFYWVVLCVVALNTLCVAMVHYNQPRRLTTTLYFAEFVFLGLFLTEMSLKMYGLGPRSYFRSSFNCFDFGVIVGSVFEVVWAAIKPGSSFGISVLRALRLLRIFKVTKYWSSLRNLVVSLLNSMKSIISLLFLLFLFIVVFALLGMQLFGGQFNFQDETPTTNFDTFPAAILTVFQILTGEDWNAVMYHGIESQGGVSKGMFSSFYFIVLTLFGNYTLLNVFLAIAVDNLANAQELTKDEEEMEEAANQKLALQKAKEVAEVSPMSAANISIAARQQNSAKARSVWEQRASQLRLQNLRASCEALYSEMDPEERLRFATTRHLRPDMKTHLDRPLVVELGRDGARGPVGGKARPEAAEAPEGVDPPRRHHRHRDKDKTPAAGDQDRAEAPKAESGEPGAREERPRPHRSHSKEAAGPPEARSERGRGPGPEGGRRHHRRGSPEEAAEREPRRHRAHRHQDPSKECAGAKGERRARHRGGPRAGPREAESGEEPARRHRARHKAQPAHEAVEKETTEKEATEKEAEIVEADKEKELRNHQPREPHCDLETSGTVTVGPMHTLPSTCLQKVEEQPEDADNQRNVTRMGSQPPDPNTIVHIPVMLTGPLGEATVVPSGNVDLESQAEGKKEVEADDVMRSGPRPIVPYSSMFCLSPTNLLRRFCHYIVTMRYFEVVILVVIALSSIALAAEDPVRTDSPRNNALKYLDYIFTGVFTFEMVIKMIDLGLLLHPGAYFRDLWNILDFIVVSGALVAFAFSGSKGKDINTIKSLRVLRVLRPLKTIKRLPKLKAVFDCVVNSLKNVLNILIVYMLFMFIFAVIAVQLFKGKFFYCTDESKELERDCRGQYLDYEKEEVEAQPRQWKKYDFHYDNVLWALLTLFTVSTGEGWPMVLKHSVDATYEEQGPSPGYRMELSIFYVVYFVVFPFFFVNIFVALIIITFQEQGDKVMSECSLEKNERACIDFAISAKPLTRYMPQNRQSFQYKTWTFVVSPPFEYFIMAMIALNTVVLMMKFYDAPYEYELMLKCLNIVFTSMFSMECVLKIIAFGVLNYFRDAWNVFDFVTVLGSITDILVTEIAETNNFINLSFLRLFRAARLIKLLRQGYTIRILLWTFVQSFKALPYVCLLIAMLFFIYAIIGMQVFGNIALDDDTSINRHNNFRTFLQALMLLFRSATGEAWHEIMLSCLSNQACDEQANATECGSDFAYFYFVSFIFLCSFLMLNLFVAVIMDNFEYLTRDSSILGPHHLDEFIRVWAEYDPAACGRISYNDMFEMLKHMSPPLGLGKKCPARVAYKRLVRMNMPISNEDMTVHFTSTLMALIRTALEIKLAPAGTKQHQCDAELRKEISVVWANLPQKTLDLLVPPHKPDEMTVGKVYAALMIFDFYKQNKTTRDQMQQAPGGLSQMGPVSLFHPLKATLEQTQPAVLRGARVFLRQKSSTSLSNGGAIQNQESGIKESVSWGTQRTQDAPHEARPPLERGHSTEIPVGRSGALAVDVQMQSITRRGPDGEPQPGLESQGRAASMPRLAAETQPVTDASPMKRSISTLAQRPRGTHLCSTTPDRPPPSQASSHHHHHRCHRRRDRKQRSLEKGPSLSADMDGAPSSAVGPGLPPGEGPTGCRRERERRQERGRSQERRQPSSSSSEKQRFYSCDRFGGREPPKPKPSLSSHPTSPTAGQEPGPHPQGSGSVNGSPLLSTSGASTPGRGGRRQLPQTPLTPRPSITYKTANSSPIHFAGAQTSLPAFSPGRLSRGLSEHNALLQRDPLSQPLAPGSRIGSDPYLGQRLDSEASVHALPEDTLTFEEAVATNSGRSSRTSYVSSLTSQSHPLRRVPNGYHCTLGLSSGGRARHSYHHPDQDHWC
Chain of N-type calcium channel (α1B (Cav2.2), β3 and α2δ subunits) (P54284 whole entry partner): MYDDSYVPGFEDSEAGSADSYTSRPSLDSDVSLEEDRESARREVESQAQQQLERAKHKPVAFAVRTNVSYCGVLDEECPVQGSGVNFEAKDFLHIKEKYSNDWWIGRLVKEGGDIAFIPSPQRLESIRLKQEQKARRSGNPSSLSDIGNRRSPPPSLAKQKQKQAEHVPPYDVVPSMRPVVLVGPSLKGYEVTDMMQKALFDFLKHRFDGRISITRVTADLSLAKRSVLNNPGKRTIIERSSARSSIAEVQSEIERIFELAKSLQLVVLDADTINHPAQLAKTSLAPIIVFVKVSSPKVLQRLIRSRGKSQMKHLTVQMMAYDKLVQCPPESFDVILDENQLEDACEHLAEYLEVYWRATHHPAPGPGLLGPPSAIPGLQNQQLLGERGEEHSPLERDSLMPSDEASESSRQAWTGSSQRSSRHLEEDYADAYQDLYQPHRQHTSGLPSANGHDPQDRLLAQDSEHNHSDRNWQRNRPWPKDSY
Chain of N-type calcium channel (α1B (Cav2.2), β3 and α2δ subunits) (P54289 25-946 partner limits assumed): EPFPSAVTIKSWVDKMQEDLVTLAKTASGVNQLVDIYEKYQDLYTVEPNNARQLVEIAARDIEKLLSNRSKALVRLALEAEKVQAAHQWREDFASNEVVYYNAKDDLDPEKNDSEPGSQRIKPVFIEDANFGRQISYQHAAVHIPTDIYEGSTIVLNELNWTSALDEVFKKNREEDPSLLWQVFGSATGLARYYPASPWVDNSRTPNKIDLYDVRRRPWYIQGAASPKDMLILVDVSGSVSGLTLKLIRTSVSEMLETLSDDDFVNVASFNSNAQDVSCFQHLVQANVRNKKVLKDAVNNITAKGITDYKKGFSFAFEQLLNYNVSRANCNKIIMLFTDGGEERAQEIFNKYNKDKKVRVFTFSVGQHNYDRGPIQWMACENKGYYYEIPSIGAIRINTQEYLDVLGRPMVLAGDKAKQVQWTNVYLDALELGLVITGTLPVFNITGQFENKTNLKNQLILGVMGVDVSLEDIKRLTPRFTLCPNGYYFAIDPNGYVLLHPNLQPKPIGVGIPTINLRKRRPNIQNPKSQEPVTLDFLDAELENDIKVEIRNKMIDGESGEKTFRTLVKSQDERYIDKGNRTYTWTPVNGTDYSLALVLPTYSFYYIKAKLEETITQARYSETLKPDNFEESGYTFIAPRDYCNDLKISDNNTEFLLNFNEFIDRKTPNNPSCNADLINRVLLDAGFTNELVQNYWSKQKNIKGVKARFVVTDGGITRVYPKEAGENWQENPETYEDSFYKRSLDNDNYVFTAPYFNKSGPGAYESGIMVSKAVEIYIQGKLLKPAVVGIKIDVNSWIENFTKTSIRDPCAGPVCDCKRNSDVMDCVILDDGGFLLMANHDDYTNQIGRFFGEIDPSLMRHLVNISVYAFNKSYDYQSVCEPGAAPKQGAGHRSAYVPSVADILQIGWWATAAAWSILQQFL
Chain of N-type calcium channel (α1B (Cav2.2), β3 and α2δ subunits) (P54289 947-1103 partner limits assumed): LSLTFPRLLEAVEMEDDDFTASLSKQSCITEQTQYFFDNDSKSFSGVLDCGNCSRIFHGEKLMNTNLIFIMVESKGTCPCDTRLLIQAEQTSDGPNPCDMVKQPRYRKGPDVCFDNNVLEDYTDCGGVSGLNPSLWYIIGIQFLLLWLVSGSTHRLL
Procedure: A stable cell line (HEK parent) co-expressing the α1B (Cav2.2), β3 and α2δ subunits of the N-type calcium channel subunits was used. These cells were routinely grown as monolayers in low glucose-containing Dulbecco's Modified Eagle Medium supplemented with 10% FBS, 2 mM L-glutamine, 100 I.U./mL penicillin, 100 μg/mL streptomycin, 400 μg/mL G418 and 200 μg/mL Zeocin (split ratio=1:5). Cells were maintained in 5% CO2 at 37° C. Compounds of Formula (I) were prepared as 10 mM stocks in DMSO from neat compound, if available. Otherwise, the 5 or 10 mM DMSO stock solutions provided in-house were used.
Calcium mobilization responses to KCl depolarization were evaluated by measuring the intensity of calcium-mediated fluorescent signal in the presence of BD Calcium Assay Dye (BD Biosciences, Franklin Lakes, N.J., U.S.A.), utilizing a Functional Drug Screening System (FDSS) by Hamamatsu Corporation (Bridgewater, N.J. U.S.A.).
Twenty-four hr prior to assay, cells were seeded in clear-base poly-D-lysine-coated 384-well plates (BD Biosciences) at a density of 5,000 cells per well in culture medium and grown overnight in 5% CO2 at 37° C. On the day of assay, growth media were removed, and cells were loaded with BD calcium assay dye (BD Biosciences) for 35 min at 37° C. under 5% CO2 and then for 25 min at room temp. Utilizing the FDSS, cells were exposed to representative compounds of Formula (I) at varying concentrations, and intracellular calcium was measured for 5 min prior to the addition of 50 mM KCl for an additional 3 min of measurement.
Calculations and Formulas
IC50 values for representative compounds of Formula (I) were determined from six-point concentration-response experiments and represent the concentration of said compound required to inhibit 50% of the maximal response. Maximal fluorescence intensity (FI) achieved upon addition of 50 mM KCl was exported from the FDSS software and further analyzed using GraphPad Prism 3.02 (Graph Pad Software Inc., San Diego, Calif., U.S.A.). Data were normalized to the maximum average counts from quadruplicate wells for each condition in the presence of 50 mM KCl and to the minimum average counts in the presence of buffer. Theoretical curves were generated using nonlinear regression curve-fitting analysis of either sigmoidal concentration-response or sigmoidal concentration-response (variable slope), and the IC50 values with the best-fit curve determined by GraphPad Prism were reported.

[3] = high-frequency stimulation (15th pulse), read-out: QPatch at High Frequency % Inhibition
[4] = low frequency, read-out: QPatch at Low Frequency % Inhibition

Chain of N-type calcium channel (Q00975 whole entry): as the sequence (Q00975 whole entry) above
Chain of N-type calcium channel (P54284 whole entry partner): as the sequence (P54284 whole entry partner) above
Chain of N-type calcium channel (P54289 25-946 partner limits assumed): as the sequence (P54289 25-946 partner limits assumed) above
Chain of N-type calcium channel (P54289 947-1103 partner limits assumed): as the sequence (P54289 947-1103 partner limits assumed) above

Compound	IC50 [2]	inhibition at 0.33 µM [2]	other results
COc1ccccc1-n1nc2c(c1-c1ccc(Cl)cc1)CC(CCOC(=O)N1CCOCC1)C2 (stereo not drawn) [Compound 2, 2-[3-(4-chlorophenyl)-2-(2-methoxyphenyl)-2,4,5,6-tetrahydrocyclopenta[c]pyrazol-5-yl]ethyl morpholine-4-carboxylate]	33 nM	–	inhibition at 0.25 µM [1, 3]: 58%; inhibition at 1 µM [1, 3]: 69%; inhibition at 5 µM [1, 3]: 97%; inhibition at 0.25 µM [1, 4]: 54%; inhibition at 1 µM [1, 4]: 76%; inhibition at 5 µM [1, 4]: 90%
CCOC(=O)C1Cc2nn(-c3ccccc3OC)c(-c3ccc(Cl)cc3)c2C1 (stereo not drawn) [Compound 5, ethyl 3-(4-chlorophenyl)-2-(2-methoxyphenyl)-2,4,5,6-tetrahydrocyclopenta[c]pyrazole-5-carboxylate]	43 nM	–	inhibition at 5 µM [1, 3]: 85%; inhibition at 5 µM [1, 4]: 82%
COc1ccccc1-n1nc2c(c1-c1ccc(Cl)cc1)CC(CCNS(C)(=O)=O)C2 (stereo not drawn) [Compound 11, N-{2-[3-(4-chlorophenyl)-2-(2-methoxyphenyl)-2,4,5,6-tetrahydrocyclopenta[c]pyrazol-5-yl]ethyl}methanesulfonamide]	73 nM	99%	inhibition at 1 µM [1, 3]: 28%; inhibition at 1 µM [1, 4]: 29%
COCc1cn([C@@H]2Cc3nn(-c4ccccc4OC)c(-c4ccc(C#N)cc4)c3C2)nn1 [Compound 129, 4-[(5S)-5-[4-(methoxymethyl)-1H-1,2,3-triazol-1-yl]-2-(2-methoxyphenyl)-2,4,5,6-tetrahydrocyclopenta[c]pyrazol-3-yl]benzonitrile]	–	47%	–
COc1ccccc1-n1nc2c(c1-c1ccc(C#N)cc1)C[C@H](n1cnc(C)c1C)C2 [Compound 131, 4-[(5S)-5-(4,5-dimethyl-1H-imidazol-1-yl)-2-(2-methoxyphenyl)-2,4,5,6-tetrahydrocyclopenta[c]pyrazol-3-yl]benzonitrile]	105 nM	67%	–
COc1ccccc1-n1nc2c(c1-c1ccc(C#N)cc1)C[C@H](n1c(C)nc(C)c1C)C2 [Compound 132, 4-[(5S)-2-(2-methoxyphenyl)-5-(2,4,5-trimethyl-1H-imidazol-1-yl)-2,4,5,6-tetrahydrocyclopenta[c]pyrazol-3-yl]benzonitrile]	–	29%	–
CCc1nnn([C@@H]2Cc3nn(-c4ccccc4OC)c(-c4ccc(C#N)cc4)c3C2)c1CC [Compound 136, 4-[(5S)-5-(4,5-diethyl-1H-1,2,3-triazol-1-yl)-2-(2-methoxyphenyl)-2,4,5,6-tetrahydrocyclopenta[c]pyrazol-3-yl]benzonitrile]	16 nM	89%	–
CCc1nc(CC)n([C@@H]2Cc3nn(-c4ccccc4OC)c(-c4ccc(C#N)cc4)c3C2)c1CC [Compound 137, 4-[(5S)-2-(2-methoxyphenyl)-5-(2,4,5-triethyl-1H-imidazol-1-yl)-2,4,5,6-tetrahydrocyclopenta[c]pyrazol-3-yl]benzonitrile]	–	49%	–
CCc1nc(C)n([C@@H]2Cc3nn(-c4ccccc4OC)c(-c4ccc(C#N)cc4)c3C2)c1CC [Compound 138, 4-[(5S)-5-(4,5-diethyl-2-methyl-1H-imidazol-1-yl)-2-(2-methoxyphenyl)-2,4,5,6-tetrahydrocyclopenta[c]pyrazol-3-yl]benzonitrile]	320 nM	63%	–

Second part, led by results:

IC50 [2]	inhibition at 0.33 µM [2]	Compound	other results
26 nM	–	COc1ccccc1-n1nc2c(c1-c1ccc(Cl)cc1)CC(CCOC(=O)N(C)C)C2 (stereo not drawn) [Compound 3, 2-[3-(4-chlorophenyl)-2-(2-methoxyphenyl)-2,4,5,6-tetrahydrocyclopenta[c]pyrazol-5-yl]ethyl dimethylcarbamate]	inhibition at 0.25 µM [1, 3]: 57%; inhibition at 1 µM [1, 3]: 76%; inhibition at 5 µM [1, 3]: 88%; inhibition at 0.25 µM [1, 4]: 35%; inhibition at 1 µM [1, 4]: 69%; inhibition at 5 µM [1, 4]: 93%
55 nM	96%	COc1ccccc1-n1nc2c(c1-c1ccc(Cl)cc1)CC(CNS(C)(=O)=O)C2 (stereo not drawn) [Compound 8, N-{[3-(4-chlorophenyl)-2-(2-methoxyphenyl)-2,4,5,6-tetrahydrocyclopenta[c]pyrazol-5-yl]methyl}methanesulfonamide]	inhibition at 0.25 µM [1, 3]: -12%; inhibition at 1 µM [1, 3]: 57%; inhibition at 0.25 µM [1, 4]: -9%; inhibition at 1 µM [1, 4]: 62%
70 nM	–	COc1ccccc1-n1nc2c(c1-c1ccc(Cl)cc1)CC(CCNC(C)=O)C2 (stereo not drawn) [Compound 12, N-{2-[3-(4-chlorophenyl)-2-(2-methoxyphenyl)-2,4,5,6-tetrahydrocyclopenta[c]pyrazol-5-yl]ethyl}acetamide]	inhibition at 1 µM [1, 3]: 26%; inhibition at 1 µM [1, 4]: 15%
30 nM	86%	COc1ccccc1-n1nc2c(c1-c1ccc(Cl)s1)CC1(C2)OC(C)(C)C(C)(C)O1 [Compound 121, 3-(5-chlorothiophen-2-yl)-2-(2-methoxyphenyl)-4′,4′,5′,5′-tetramethyl-2,6-dihydro-4H-spiro[cyclopenta[c]pyrazole-5,2′-[1,3]dioxolane]]	–
–	33%	COc1ccccc1-n1nc2c(c1-c1ccc(Cl)cc1)CC(N1CCCC1)C2 (stereo not drawn) [Compound 122, 3-(4-chlorophenyl)-2-(2-methoxyphenyl)-5-pyrrolidin-1-yl-2,4,5,6-tetrahydrocyclopenta[c]pyrazole]	–
81 nM	70%	COC(=O)c1cn([C@@H]2Cc3nn(-c4ccccc4OC)c(-c4ccc(C#N)cc4)c3C2)nn1 [Compound 125, methyl 1-[(5S)-3-(4-cyanophenyl)-2-(2-methoxyphenyl)-2,4,5,6-tetrahydrocyclopenta[c]pyrazol-5-yl]-1H-1,2,3-triazole-4-carboxylate]	–
–	33%	COc1ccccc1-n1nc2c(c1-c1ccc(C#N)cc1)C[C@H](n1cc(C(C)(C)O)nn1)C2 [Compound 126, 4-[(5S)-5-[4-(1-hydroxy-1-methylethyl)-1H-1,2,3-triazol-1-yl]-2-(2-methoxyphenyl)-2,4,5,6-tetrahydrocyclopenta[c]pyrazol-3-yl]benzonitrile]	–
170 nM	59%	COc1ccccc1-n1nc2c(c1-c1ccc(C#N)cc1)C[C@H](n1cc(COC(C)=O)nn1)C2 [Compound 128, {1-[(5S)-3-(4-cyanophenyl)-2-(2-methoxyphenyl)-2,4,5,6-tetrahydrocyclopenta[c]pyrazol-5-yl]-1H-1,2,3-triazol-4-yl}methyl acetate]	–
–	35%	CCc1nc(C)c(C)n1[C@@H]1Cc2nn(-c3ccccc3OC)c(-c3ccc(C#N)cc3)c2C1 [Compound 133, 4-[(5S)-5-(2-ethyl-4,5-dimethyl-1H-imidazol-1-yl)-2-(2-methoxyphenyl)-2,4,5,6-tetrahydrocyclopenta[c]pyrazol-3-yl]benzonitrile]	–
200 nM	50%	CCc1nccn1[C@@H]1Cc2nn(-c3ccccc3OC)c(-c3ccc(C#N)cc3)c2C1 [Compound 134, 4-[(5S)-5-(2-ethyl-1H-imidazol-1-yl)-2-(2-methoxyphenyl)-2,4,5,6-tetrahydrocyclopenta[c]pyrazol-3-yl]benzonitrile]	–
–	44%	COc1ccccc1-n1nc2c(c1-c1ccc(C#N)cc1)C[C@H](n1ccnc1C)C2 [Compound 135, 4-[(5S)-2-(2-methoxyphenyl)-5-(2-methyl-1H-imidazol-1-yl)-2,4,5,6-tetrahydrocyclopenta[c]pyrazol-3-yl]benzonitrile]	–
